Experimental data published in US20200199174A1, “NOVEL FLUORESCENT LABELING METHOD” (priority 2017, published 2020).

How the values were obtained:
MBP-5D4 = assay: Dissociation rate constant of anti-DNP scFv and probe (stopped-flow, competition with DNP); format: binding, mouse; conditions: 6DCF-DNP and 5D4
Description: (§1) A flow channel in a stopped-flow apparatus (Bio-logic) was filled with a pretreatment liquid in which 1% w/v gelatin was dissolved in a phosphate buffer solution (pH 7.4) (PBS), and blocking was performed by leaving the apparatus at room temperature for at least 30 minutes, after which the flow channel was thoroughly washed with Milli-Q water. Using the apparatus, PBS in which MBP-5D4 or a variant thereof at a concentration of 100 nM or less and a probe at a concentration of 1 μM were dissolved, and PBS in which 100 μM DNP as a competitive substance was dissolved were mixed at a 1:1 ratio, and a fluorescence change was measured. At this time, the excitation/fluorescence wavelengths used were 510 nm/529-556 nm for the DCF probe and 650 nm/672-712 nm for the SiR probe, and measurement was performed under conditions of a temperature of 25-27C. A dissociation rate constant koff was calculated by fitting the fluorescence intensity I(t) observed with respect to time t using formula (1) below (FIG. 13 and Table 1).
I(t)=c1·e^−k^off^t+c2·t+c3 Formula (1):
In the formula cn (n=1-3) is a constant.

V94A mutant = assay: Dissociation rate of alanine-scanning mutant and probe (competition experiments with DNP); format: binding, mouse
From the text: (§2) An amino acid mutation was introduced into an MBP-scFv protein coding region by circular PCR with pMalc5E-5D4 as a template, using a thermostable polymerase KOD Plus (TOYOBO) and forward and reverse primers including a codon modified to correspond to the desired amino acid mutation. The resultant linear PCR product was circularized using a Ligation Kit Version 2 (TAKARA), and an MBP-scFv mutant expression construct was obtained.
as §1, with “A dissociation rate constant koff was calculated by fitting the fluorescence intensity I(t) observed with respect to time t using formula (1) below (FIG. 13 and Table 1).” left out

5D4 (Y96F) = assay: Dissociation rate constant of anti-DNP scFv mutant and probe (stopped-flow, competition with DNP); format: binding, mouse
From the text: as §2
as §1, with “A dissociation rate constant koff was calculated by fitting the fluorescence intensity I(t) observed with respect to time t using formula (1) below (FIG. 13 and Table 1).” left out

[1] = literature (Zheng et al. 2014); cited from earlier work
5D4 = assay: Fluorescence change characteristics of fluorophore-DNP pair in presence and absence of 5D4; format: biochemical, mouse; conditions: recombinant 5D4 expressed/purified in E. coli
Description: The anti-DNP scFv was expressed and purified as a fusion protein of maltose-binding protein. Escherichia coli BL21 (DE3) was transformed with the pMalc5E vector (pMalc5E-scFv) into which the purification object scFv sequence was introduced, and was cultured overnight on an LB medium plate including 100 μg/mL of ampicillin. A single colony was picked up and cultured overnight in 5 mL of a liquid LB medium including 100 μg/mL of ampicillin, and 1 mL of the resultant culture liquid was transferred to 100 mL of LB medium including 100 μg/mL of ampicillin. Shake culturing was performed at 200 rpm and a temperature of 37° C. until an optical density at 600 nm of 0.8 was reached, and after shake culturing was performed for 30 minutes at 15° C., IPTG was added to give a final concentration of 0.5 mM, and shake culturing was continued overnight. The E. coli were recovered after culturing and were disrupted using a sonicator. […] An eluate was replaced with PBS, and yield was quantified by the Bradford method, after which the eluate was subjected to the measurements described below.
RNA was extracted from the hybridomas of the resultant four clones, and cDNA fragments of the variable regions of the light chains and heavy chains of monoclonal antibodies were obtained by reverse transcription. The cDNA fragments of the variable regions of the light chains and heavy chains were connected via a linker sequence by overlap PCR, and scFv constructs were constructed only from subclones (4E10 and 5D4) derived from wells 1E10 and 3B12, respectively. […] The nucleic acid sequence of the cDNA sequence coding for 5D4 was identified by sequencing (SEQ ID NO: 8), an amino acid sequence determined from the result thereof was analyzed using the IMGT database (http://www.imgt.org/), and a […] region was specified (FIG. 4).
This fluorescence characteristic is similar to that of Cy5 dye, which is widely used in fluorescence imaging in cells. In the presence of 5D4, the fluorescence intensity of 6SiR-DNP was increased by a factor of 98 relative to the fluorescence intensity thereof in the absence of 5D4 (FIG. 6B). When fluorescence quantum yield of 6SiR-DNP in a state in which 6SiR-DNP is bound to 5D4 was measured, the fluorescence quantum yield in the presence of an excess of 5D4 was 0.57. This value for the fluorescence quantum yield is large, and is equal to or greater than that of Cy5 (quantum yield=0.2-0.4) and Cy5.5 (quantum yield=0.24), which are also highly versatile fluorescent dyes in cell labeling experiments (Q. Zheng et al., Ultra-stable organic fluorophores for single-molecule research. Chem Soc Rev 43, 1044-1056 (2014).).

[2] = system: 5D4 fusion protein with TagRFP in HEK293T cells; assay: Expression test of anti-DNP scFv in cultured cells, fluorescent labeling of cytoplasm; format: cell-based; conditions: 1 μM, 10 minutes room temperature, washed with HBS, HEK293T cells expressing TagRFP-5D4
Description: HEK293T cells and HeLa cells were cultured in Dulbecco's Modified Eagle's Medium (DMEM, Wako) including 10% fetal bovine serum (FBS, SIGMA) at a carbon dioxide concentration of 5% and a temperature of 37° C.
Gene transfer into HeLa cells was performed using lipofection. For the HeLa cells under culture in a 24-well dish, 25 μL of Opti-MEM I (GIBCO) to which 0.5 μg of a plasmid had been added was added to a mixed solution of 2 μL of Lipofectamine 2000 (Invitrogen) and 25 μL of Opti-MEM I and incubated for five minutes at room temperature. This mixture was added to 500 μL of a medium 90-100% confluent with HEK293T cells and HeLa cells, and culturing was performed at 37° C. at a carbon dioxide concentration of 5%. Cell concentration was diluted to 1/10 5 to 8 hours after transfection, and cells were re-seeded on a glass dish. Cells were subjected to various imaging experiments after 24 hours had passed since transfection.
The 5D4 clone for which a fluorescence-increasing effect of the scFv on the fluorophore-DNP pair was observed was expressed in HEK293T cells as a fusion protein with the fluorescent protein TagRFP, and the state of expression of the scFv in the cells or the propriety of fluorescent labeling of cytoplasm by the fluorophore-DNP pair was evaluated. […]

O=C(NCCOCCOCCNc1ccc([N+](=O)[O-])cc1[N+](=O)[O-])c1ccc(C(=O)O)c(-c2c3cc(Cl)c(=O)cc-3oc3cc(O)c(Cl)cc23)c1 [Probe 6DCF-DNP, 2-(2,7-dichloro-6-hydroxy-3-oxo-3H-xanthene-9-yl)-4-((2-(2-(2-((2,4-dinitrophenyl)amino)ethoxy)ethoxy)ethyl)carbamoyl)benzoate]
dissociation rate constant (koff) for a fluorescence-OFF state (MBP-5D4): 0.014 s⁻¹ | dissociation rate (V94A mutant; V94A mutant and 6DCF-DNP): 0.31 s⁻¹ | rate increase relative to the original rate (V94A mutant; V94A mutant and 6DCF-DNP vs original 5D4): 25 times | dissociation rate (5D4 (Y96F); Y96F mutant): 1.1 s⁻¹ | dissociation rate made faster relative to original (5D4 (Y96F); Y96F mutant and 6DCF-DNP vs original 5D4): 100 times

CCN1/C(=C/C=C/C=C/C2=[N+](CCCCCC(=O)O)c3ccc(S(=O)(=O)O)cc3C2(C)C)C(C)(C)c2cc(S(=O)(=O)[O-])ccc21 [Cy5]
quantum yield [1]: 0.2-0.4

CN(CC(=O)NCCOCCOCCNc1ccc([N+](=O)[O-])cc1[N+](=O)[O-])C(=O)c1ccccc1-c1c2cc(Cl)c(=O)cc-2oc2cc(O)c(Cl)cc12 [DCF-DNP, 2-(2,7-dichloro-6-hydroxy-3-oxo-3H-xanthene-9-yl)-N-(2-((2-(2-(2-((2,4-dinitrophenyl)amino)ethoxy)ethoxy)ethyl)amino)-2-oxoethyl)-N-methylbenzamide]
increase in fluorescence intensity (5D4): about 10 times

CC(=O)Oc1cc2c(cc1F)C1(OC(=O)c3ccc(C(=O)NCCOCCOCCNc4ccc([N+](=O)[O-])cc4[N+](=O)[O-])cc31)c1cc(F)c(OC(C)=O)cc1O2 [Probe 6OGdiac-DNP, 6-((2-(2-(2-((2,4-dinitrophenyl)amino)ethoxy)ethoxy)ethyl)carbamoyl)-2′,7′-difluoro-3-oxo-3H-spiro[isobenzofuran-1,9′-xanthene]-3′,6′-diyl diacetate]
green fluorescence in cells [2]: confirmed only in the cytoplasm of TagRFP-positive HEK293T cells

Cy5.5
quantum yield [1]: 0.24
